Peptide text beside a SMILES is read from it.

For `C=C(C)C(=O)O`, the logP (in general, a log measure of how a compound divides between an organic and an aqueous phase) was determined as 0.93.
As for `O=NN(CCCl)C(=O)NC1C(O)OC(CO)C(O)C1O` (stereo unspecified), the logP is -1.02.
The same measure for `CC(CO)NC1=C(N2CC2)C(=O)C(NC(C)CO)=C(N2CC2)C1=O` (stereo unspecified): -0.37; for `COc1ccc(OC(=O)c2ccc(N)cc2O)cc1`: 3.07; for `CC(C)(C)c1ccc([N+](=O)[O-])cc1`: 3.89.
The same measure for `Clc1ccc(Cl)c(-c2c(Cl)ccc(Cl)c2Cl)c1`: 6.55.
In the case of `CCOC(=O)NC(O)C(Cl)(Cl)Cl` (stereo unspecified) it was 1.84.
For the molecule `O=[N+]([O-])c1cccc(F)c1`, the logP came out at 1.9.
`CN(Cc1ccccc1)c1ccccc1` came in with a logP of 4.22.
In the case of `CCC1(CCC(C)C)C(=O)NC(=S)NC1=O` it was 2.98; in that of `COC(=O)c1cccc(N2C(=O)CCC2=O)c1`, 0.36; in that of `c1cc2nc[nH]c2cn1`, 0.18.
The same measure for `O=C(OCCCc1cnc[nH]1)c1ccccc1`: 2.64.
In turn, `O=[N+]([O-])c1ncn(CC(O)CN2CC2)n1` (stereo unspecified) gave a logP of -0.72.
The same measure for `OCCCCl`: 0.5; for `O=C1NC(=O)C(c2ccccc2)(c2ccc(O)cc2)N1` (stereo unspecified): 1.7.
The same measure for `CN(C)N=Nc1ccc(C(N)=O)cc1`: 1.2.
The same measure for `COC(=O)c1ccccc1Cl`: 2.38; for `CC(=O)N[C@H](C(=O)N[C@@H](Cc1ccccc1)C(=O)N[C@@H](C)C(N)=O)C(C)C` (Ac-Val-Phe-Ala-NH2): 0.06.
The molecule `CCCCC(NC(Cc1ccccc1)C(=O)N1CCC(OCOC)CC1)C(=O)NC(CC1CCCCC1)C(O)CC(C(=O)NCCNc1noc(N)n1)C(C)C` (stereo unspecified) had a logP of 4.11.
In the case of `CCC(=O)OCC(=O)C1(O)CCC2C3CCC4=CC(=O)CCC4(C)C3C(O)CC21C` (stereo unspecified) it was 2.8; in that of `O=C(O)[C@@H]1CCCN1`, -2.54; in that of `O=NN1CCCC1`, -0.19.
The same measure for `Cn1nnc2ccccc2c1=O`: 0.84; for `CCCC(NC(C)=O)C(=O)OC` (stereo unspecified): 0.33.
In the case of `CCOP(=S)(NC(C)C)Oc1ccccc1C(=O)OC(C)C` (stereo unspecified) it was 4.12.
As for `O=[N+]([O-])c1ccc(Br)cc1`, the logP was 2.55.
The same measure for `CN1CCN(CC(=O)N/N=C/c2ccc([N+](=O)[O-])o2)CC1`: -0.1; for `NC(=O)CCNC(=O)C(F)(F)Cn1ccnc1[N+](=O)[O-]`: -0.95.
The same measure for `COc1cccc(C(N)=O)c1`: 0.85.
In the case of `O=c1[nH]cnc2n[nH]nc12` it was -1.97; in that of `c1ccc2c(N3CCCCC3)ncnc2c1`, 2.92; in that of `Nc1ccc(S(=O)(=O)Nc2ccccc2)cc1`, 1.55.
Turning to `CN(C)C(=O)OCc1ccc(C(F)(F)F)cc1`, the logP was determined as 3.08.
Take `Clc1ccc(-c2ccccc2)cc1`: the log partition coefficient (logP) was 4.61.
The same measure for `CCc1ccc(N2C(=O)CCC2=O)cc1`: 1.1; for `CCCc1ncc([N+](=O)[O-])n1CCNC(=S)OC`: 1.94; for `COc1cccc(N)c1`: 0.93.
In the case of `CCCCNC(=O)c1cccnc1` it was 0.9.
The same measure for `CCCCCCCC(=O)OCC(=O)C1(O)CCC2C3CCC4=CC(=O)CCC4(C)C3C(O)CC21C` (stereo unspecified): 5.49.
In the case of `CC(C)NCC(O)c1ccc(Cl)c(Cl)c1` (stereo unspecified), the logP is 3.32.
In turn, `O=[N+]([O-])c1ccnc2ccccc12` had a logP of 2.06.
Take `CCCOC1OC(CO)C(O)C(O)C1O` (stereo unspecified): the log partition coefficient (logP) is -1.66.
In turn, `CNC(=O)Oc1cc(C)ccc1C(C)(C)C` showed a logP of 3.14.
As to `Oc1ccccc1C=Nc1ccccc1`, the log partition coefficient (logP) was determined as 3.09.
The same measure for `NS(=O)(=O)Cc1ccccc1`: 0.13; for `CC(=O)c1cccc(NC(=O)N(C)C)c1`: 0.95.
In the case of `CCn1nc2ccccc2n1` it was 2.1.
The same measure for `NCCc1ccccc1`: 1.41.
On to `COc1ccc(NC(=O)N(C)C)cc1Cl`, for which the logP is 1.64.
The same measure for `CC(C)(C)C(=O)c1ccccc1`: 3; for `CNC(=O)ON=C(SC)C(=O)N(C)C`: -0.47.
Molecule `O=NN(CCCl)C(=O)NC1C(O)CCCC1O` (stereo unspecified) returned a logP of 0.16.
In the case of `Clc1ccc(Cl)c(Cl)c1Cl` it was 4.6.
In the case of `Oc1ccc(I)cc1` it was 2.91.
The same measure for `NCCCCc1ccccc1`: 2.4.
Take `CCCCC[C@H](O)/C=C/[C@H]1[C@H](O)CC(=O)[C@@H]1C/C=C\CCCC(=O)O`: the logP amounted to 2.82.
In the case of `CCOC(=O)c1ccncc1` it was 1.43; in that of `NNC(=O)c1ccnc(Cc2ccccc2)c1`, 1.01; in that of `ClC=C(Cl)Cl`, 2.42.
In the case of `C=CC1(C)OC(=O)N(c2cc(Cl)cc(Cl)c2)C1=O` (stereo unspecified) it was 3.1; in that of `CC1=CC(=O)C=CC1=O`, 0.72; in that of `CCO[Si](OCC)(OCC)c1ccccc1`, 2.99.
The molecule `CCCSP(=O)(OCC)Oc1ccc(Br)cc1Cl` (stereo unspecified) showed a logP of 4.68.
The same measure for `CCOc1ccc(N)cc1`: 1.24; for `CCOC(=O)Oc1cccc2cccnc12`: 1.73; for `CCc1ccccc1N`: 1.74.
`Clc1ccc(Cl)c(-c2cc(Cl)ccc2Cl)c1`: the lipophilicity (logP) amounted to 6.09.
In the case of `CC(=O)N(c1ccc(N2CCOCC2)nn1)n1c(C)ccc1C` it was 1.64.
The same measure for `COC(=O)c1ccc[nH]1`: 1.17; for `NC1CC1`: 0.07; for `O=C(O)COc1ccc(Cl)cc1`: 2.25.
The same measure for `CCCCCCC1(CC)C(=O)NC(=O)NC1=O`: 2.46; for `C=C1C(=O)OC2CC(C)C3C=CC(=O)C3(C)C(OC(=O)CC(=O)OC3C4C(=C)C(=O)OC4CC(C)C4C=CC(=O)C43C)C12` (stereo unspecified): 1.33; for `CN(C)C(=O)Nc1ccc(C(=O)c2ccccc2)cc1`: 2.59.
As for `CNC(=O)Oc1ccc(OC)cc1`, the logP came to 1.2.
The same measure for `Cn1c(N)nc2cc(Cl)c(Cl)cc21`: 2.98.
In the case of `O=[N+]([O-])c1ncc[nH]1` it was 0.15; in that of `Cn1c(N)nc2cc(Cl)ccc21`, 2.09.
The same measure for `S=C=NC(c1ccccc1)(c1ccccc1)c1ccccc1`: 7.02; for `CCc1cccc(C)c1N(C(=O)CCl)C(C)COC` (stereo unspecified): 3.13; for `Nc1ccccc1Oc1ccccc1`: 2.46.
As to `Cn1c(=O)ccc2ccccc21`, the logP amounted to 1.45.
`C=CCCCCC` registered a log partition coefficient (logP) of 3.99.
The molecule `O=C(O)c1cc(I)cc(I)c1O` returned a logP of 4.56.
The same measure for `N#C/C=C/C#N`: -0.25; for `CC(=O)OCC1=C(C(=O)O)N2C(=O)[C@@H](NC(=O)Cc3cccs3)[C@H]2SC1`: -0.41.
The same measure for `CCCC[SiH](C)C`: 3.57.
The same measure for `Cc1ccccc1OCC(=O)O`: 1.98; for `CCCCC1CCCc2ncc(C(=O)OC)c(=O)n21` (stereo unspecified): 1.77.
In the case of `NS(=O)(=O)c1ccc2c(c1)S(=O)(=O)NC(CC1CCCC1)N2` (stereo unspecified), the logP was determined as 1.24.
In the case of `CC(Oc1ccccc1)C(=O)N[C@@H]1C(=O)N2[C@@H]1SC(C)(C)[C@@H]2C(=O)O` (stereo partly specified) it was 2.2; in that of `CC1(C)S[C@@H]2[C@H](NC(=O)C(C(=O)Oc3ccc4c(c3)CCC4)c3ccccc3)C(=O)N2[C@H]1C(=O)O` (stereo partly specified), 3.77.
In turn, `COc1ccccc1OC(C)=O` had a lipophilicity (logP) of 1.38.
In the case of `CCN(CC)Cc1cccnc1` it was 1.01.
For `NNC(=O)c1ccnc(Cl)c1`, the logP came out at 0.11.
For the molecule `CC(=O)Oc1cccc(C)c1`, the logP is 2.09.
Turning to `OCCCF`, the log partition coefficient (logP) was -0.28.
Regarding `Nc1nccs1`, the logP is 0.38.
Take `CN(C)C(N(C)C)=S(I)c1cccc(Cl)c1Cl` (stereo unspecified): the logP worked out at 0.29.
In the case of `Oc1ccccc1O` it was 0.88.
In the case of `COC(=O)CC(C)C` it was 1.82.
The molecule `COc1ccc(C=CC(=O)O)cc1` gave a logP of 2.68.
The same measure for `FCF`: 0.2; for `O=C(O)c1ccc(O)c(O)c1`: 0.86.
In the case of `c1cncc(CCN2CCCC2)c1` it was 1.34.
`C1COCCOCCOCCOCCO1` came in with a logP of -0.48.
`CC(C)(C)C(=O)C(C)(C)C` came in with a logP of 3.
`CCCS`: the logP was 1.81.
In the case of `CC(C)OC(=O)Nc1ccccc1` it was 2.6.
For the molecule `Nc1ccc(C2CCCCC2)cc1`, the logP was 3.65.
In the case of `CC(C)(C)C1(O)CCN2CC3c4ccccc4CCc4cccc(c43)C2C1` (stereo unspecified) it was 5.2; in that of `CC(=O)CNc1ccccc1C(=O)O`, 1.85.
The same measure for `CNC(=O)Oc1ccccc1[N+](=O)[O-]`: 1.02; for `S=C=S`: 1.94.
`Brc1cccc(Br)c1` displayed a logP of 3.75.
In the case of `CSc1nc(NC(C)C)nc(NC(C)C)n1` it was 3.51.
The same measure for `NCCc1ccc(O)c(O)c1`: -0.98; for `NCCCN1CCN(CCCN)CC1`: -1.43; for `Cn1c(C=[N+](C)[O-])cnc1[N+](=O)[O-]`: 0.04.
Turning to `O=C(Nc1ccc(Cl)cc1)c1cccnc1`, the lipophilicity (logP) turned out to be 2.52.
In the case of `COC(=O)Cn1cnc([N+](=O)[O-])n1` it was -0.38.
`O=C(Oc1ccccc1)Oc1ccccc1` returned a lipophilicity (logP) of 3.28.
In the case of `Nc1cccc2nc3ccccc3cc12` it was 2.47; in that of `ClCc1ccccc1`, 2.3.
In the case of `CCNC(=O)NO` it was -0.76; in that of `CCc1cnc(NS(=O)(=O)c2ccc(N)cc2)nc1`, 0.9.
The same measure for `CCNC`: 0.15; for `CC(C)c1cc([N+](=O)[O-])cc([N+](=O)[O-])c1O`: 3.1.
Turning to `FC(F)(F)c1cccc2cccnc12`, the logP was 2.5.
In the case of `NCCCC[C@H](N)C(=O)O` it was -3.05; in that of `O=C(O)c1ccc(O)c([N+](=O)[O-])c1`, 1.85; in that of `O=C(CCNNC(=O)c1ccncc1)NCc1ccccc1`, 0.87.
The same measure for `Cc1cccc(C)c1[N+](=O)[O-]`: 2.95.
`O=C(O)c1ccc(Br)cc1` displayed a logP of 2.86.
In the case of `O=C(O)Cc1c(Cl)ccc(Cl)c1Cl` it was 3.2.

Source of the values: the OPERA property sets (Mansouri et al. 2018).
